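Cultured in 96-well plates, cells were exposed to test compound for 48 hours across five concentrations. The concentration for 50% growth inhibition is given as GI50. TGI is the concentration that stops growth completely.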
System: TK-10 renal
Test: growth of human tumour cells (NCI), 48 h

Row | SMILES | TGI [µM] | GI50 [µM]
1 | COc1cc2c(cc1OCCCOc1cc3c(cc1OC)C(=O)N1CCC[C@H]1CN3)N=C[C@@H]1CCCN1C2=O | 0.554 | –
2 | OC(c1ccco1)C(F)(F)c1nc2ccccc2o1 (stereo unspecified) | > 100 | –
3 | CCOC(=O)C(NC(=O)c1ccc(N=NN(C)C)cc1)C(C)C (stereo unspecified) | > 100 | –
4 | Cc1cc2c(cc1Cl)SC(NNc1cnc3ccccc3n1)=NS2(=O)=O | > 100 | –
5 | O=C1c2c(c3c4ccc(Br)cc4oc3c3[nH]c4ccccc4c23)C(=O)N1O | > 100 | 4.67
6 | CCOC(=O)c1c(NC(=S)Nc2ccc(C)cc2)sc2c1CCN(C)C2 | > 100 | –
7 | c1ccc([P+](Cc2csnn2)(c2ccccc2)c2ccccc2)cc1 | > 100 | –
8 | c1ccc(-c2ccc(N=NN3CCCC3)cc2)cc1 | > 100 | –
9 | NC(=S)N=Nc1c(O)cc(Nc2ccc(Cl)cc2Cl)c2ccccc12 | > 100 | –
10 | CCC1(CC)C(=O)NC(=S)N=C1N | > 100 | –
11 | O=c1oc2ccccc2c2nc3ccccc3cc12 | > 100 | –
12 | O=C(NN1C(=O)CSC1c1ccc(Cl)c(Cl)c1)c1ccncc1 (stereo unspecified) | > 100 | –
13 | CCNC(=S)N/N=C/c1ccccn1 | > 100 | –
14 | O=C1NN=C(c2c[nH]c3ccccc23)CC1NCc1ccccc1 (stereo unspecified) | > 100 | –
15 | O=c1c2cc3c(=O)n(CCc4ccccc4CO)c(=O)c3cc2c(=O)n1CCc1ccccc1CO | > 100 | –
16 | CCOC(=O)c1[nH]c2nc(SC)nc(NC)c2c1N | > 100 | –
17 | FC(F)=C(c1ccc(-c2ccc(Cl)cc2)cc1)C(F)(F)F | 29.4 | –
18 | COC(=O)[C@H]1C=C[C@H](OC2OC(COC(C)=O)C(OC(C)=O)C(OC(C)=O)C2OC(C)=O)n2c(=O)n(-c3ccccc3)c(=O)n21 (stereo partly specified) | 15.4 | –

System: SF-295 CNS
Test: growth of human tumour cells (NCI), 48 h

Row | SMILES | TGI [µM]
19 | COc1cc2c(cc1OCCCOc1cc3c(cc1OC)C(=O)N1CCC[C@H]1CN3)N=C[C@@H]1CCCN1C2=O | 0.671
20 | OC(c1ccco1)C(F)(F)c1nc2ccccc2o1 (stereo unspecified) | > 100
21 | CCOC(=O)C(NC(=O)c1ccc(N=NN(C)C)cc1)C(C)C (stereo unspecified) | > 100
22 | Cc1cc2c(cc1Cl)SC(NNc1cnc3ccccc3n1)=NS2(=O)=O | > 100
23 | CCOC(=O)c1c(NC(=S)Nc2ccc(C)cc2)sc2c1CCN(C)C2 | > 100
24 | c1ccc([P+](Cc2csnn2)(c2ccccc2)c2ccccc2)cc1 | > 100
25 | c1ccc(-c2ccc(N=NN3CCCC3)cc2)cc1 | > 100
26 | NC(=S)N=Nc1c(O)cc(Nc2ccc(Cl)cc2Cl)c2ccccc12 | 45.9
27 | CCC1(CC)C(=O)NC(=S)N=C1N | > 100
28 | O=c1oc2ccccc2c2nc3ccccc3cc12 | > 100
29 | O=C(NN1C(=O)CSC1c1ccc(Cl)c(Cl)c1)c1ccncc1 (stereo unspecified) | > 100
30 | CCNC(=S)N/N=C/c1ccccn1 | > 100
31 | O=C1NN=C(c2c[nH]c3ccccc23)CC1NCc1ccccc1 (stereo unspecified) | > 100
32 | O=c1c2cc3c(=O)n(CCc4ccccc4CO)c(=O)c3cc2c(=O)n1CCc1ccccc1CO | > 100
33 | CCOC(=O)c1[nH]c2nc(SC)nc(NC)c2c1N | > 100
34 | CC1=CCC[C@H]2[C@](C)(CC3=CC(=O)C4SCCSC4C3=O)[C@@H](C)CC[C@]12C (stereo partly specified) | 32.8
35 | C/C(=N\Nc1nc2ccccc2s1)c1cccnn1 | 7.2
36 | FC(F)=C(c1ccc(-c2ccc(Cl)cc2)cc1)C(F)(F)F | 56.7
37 | COC(=O)[C@H]1C=C[C@H](OC2OC(COC(C)=O)C(OC(C)=O)C(OC(C)=O)C2OC(C)=O)n2c(=O)n(-c3ccccc3)c(=O)n21 (stereo partly specified) | 26.9

System: RXF 393 renal
Test: growth of human tumour cells (NCI), 48 h

Row | SMILES | TGI [µM] | GI50 [µM]
38 | COc1cc2c(cc1OCCCOc1cc3c(cc1OC)C(=O)N1CCC[C@H]1CN3)N=C[C@@H]1CCCN1C2=O | 2.55 | –
39 | OC(c1ccco1)C(F)(F)c1nc2ccccc2o1 (stereo unspecified) | > 100 | –
40 | Cc1cc2c(cc1Cl)SC(NNc1cnc3ccccc3n1)=NS2(=O)=O | > 100 | –
41 | O=C1c2c(c3c4ccc(Br)cc4oc3c3[nH]c4ccccc4c23)C(=O)N1O | 6.34 | 2.1
42 | CCOC(=O)c1c(NC(=S)Nc2ccc(C)cc2)sc2c1CCN(C)C2 | > 100 | –
43 | c1ccc([P+](Cc2csnn2)(c2ccccc2)c2ccccc2)cc1 | > 100 | –
44 | c1ccc(-c2ccc(N=NN3CCCC3)cc2)cc1 | > 100 | –
45 | NC(=S)N=Nc1c(O)cc(Nc2ccc(Cl)cc2Cl)c2ccccc12 | 51.4 | –
46 | CCC1(CC)C(=O)NC(=S)N=C1N | > 100 | –
47 | O=c1oc2ccccc2c2nc3ccccc3cc12 | 91.3 | –
48 | O=C(NN1C(=O)CSC1c1ccc(Cl)c(Cl)c1)c1ccncc1 (stereo unspecified) | > 100 | –
49 | CCNC(=S)N/N=C/c1ccccn1 | > 100 | –
50 | O=C1NN=C(c2c[nH]c3ccccc23)CC1NCc1ccccc1 (stereo unspecified) | > 100 | –
51 | O=c1c2cc3c(=O)n(CCc4ccccc4CO)c(=O)c3cc2c(=O)n1CCc1ccccc1CO | > 100 | –
52 | CCOC(=O)c1[nH]c2nc(SC)nc(NC)c2c1N | > 100 | –
53 | CC1=CCC[C@H]2[C@](C)(CC3=CC(=O)C4SCCSC4C3=O)[C@@H](C)CC[C@]12C (stereo partly specified) | 44.8 | –
54 | C/C(=N\Nc1nc2ccccc2s1)c1cccnn1 | 84.5 | –
55 | FC(F)=C(c1ccc(-c2ccc(Cl)cc2)cc1)C(F)(F)F | 40.9 | –
56 | COC(=O)[C@H]1C=C[C@H](OC2OC(COC(C)=O)C(OC(C)=O)C(OC(C)=O)C2OC(C)=O)n2c(=O)n(-c3ccccc3)c(=O)n21 (stereo partly specified) | 3.73 | –

System: MCF7 breast
Test: growth of human tumour cells (NCI), 48 h

Row | SMILES | TGI [µM] | GI50 [µM]
57 | OC(c1ccco1)C(F)(F)c1nc2ccccc2o1 (stereo unspecified) | > 100 | –
58 | O=C1c2c(c3c4ccc(Br)cc4oc3c3[nH]c4ccccc4c23)C(=O)N1O | > 100 | 1.12
59 | CCOC(=O)c1c(NC(=S)Nc2ccc(C)cc2)sc2c1CCN(C)C2 | > 100 | –
60 | c1ccc(-c2ccc(N=NN3CCCC3)cc2)cc1 | > 100 | –
61 | NC(=S)N=Nc1c(O)cc(Nc2ccc(Cl)cc2Cl)c2ccccc12 | > 100 | –
62 | CC1=CCC[C@H]2[C@](C)(CC3=CC(=O)C4SCCSC4C3=O)[C@@H](C)CC[C@]12C (stereo partly specified) | 63.8 | –
63 | C/C(=N\Nc1nc2ccccc2s1)c1cccnn1 | > 100 | –

System: SK-MEL-2 melanoma
Test: growth of human tumour cells (NCI), 48 h

Row | SMILES | TGI [µM] | GI50 [µM]
64 | COc1cc2c(cc1OCCCOc1cc3c(cc1OC)C(=O)N1CCC[C@H]1CN3)N=C[C@@H]1CCCN1C2=O | 0.365 | –
65 | OC(c1ccco1)C(F)(F)c1nc2ccccc2o1 (stereo unspecified) | > 100 | –
66 | CCOC(=O)C(NC(=O)c1ccc(N=NN(C)C)cc1)C(C)C (stereo unspecified) | > 100 | –
67 | O=C1c2c(c3c4ccc(Br)cc4oc3c3[nH]c4ccccc4c23)C(=O)N1O | 7.23 | 2.34
68 | CCOC(=O)c1c(NC(=S)Nc2ccc(C)cc2)sc2c1CCN(C)C2 | > 100 | –
69 | c1ccc([P+](Cc2csnn2)(c2ccccc2)c2ccccc2)cc1 | > 100 | –
70 | c1ccc(-c2ccc(N=NN3CCCC3)cc2)cc1 | > 100 | –
71 | NC(=S)N=Nc1c(O)cc(Nc2ccc(Cl)cc2Cl)c2ccccc12 | > 100 | –
72 | CCC1(CC)C(=O)NC(=S)N=C1N | > 100 | –
73 | O=c1oc2ccccc2c2nc3ccccc3cc12 | > 100 | –
74 | O=C(NN1C(=O)CSC1c1ccc(Cl)c(Cl)c1)c1ccncc1 (stereo unspecified) | > 100 | –
75 | CCNC(=S)N/N=C/c1ccccn1 | > 100 | –
76 | O=C1NN=C(c2c[nH]c3ccccc23)CC1NCc1ccccc1 (stereo unspecified) | > 100 | –
77 | O=c1c2cc3c(=O)n(CCc4ccccc4CO)c(=O)c3cc2c(=O)n1CCc1ccccc1CO | > 100 | –
78 | CCOC(=O)c1[nH]c2nc(SC)nc(NC)c2c1N | > 100 | –
79 | CC1=CCC[C@H]2[C@](C)(CC3=CC(=O)C4SCCSC4C3=O)[C@@H](C)CC[C@]12C (stereo partly specified) | 23.2 | –
80 | C/C(=N\Nc1nc2ccccc2s1)c1cccnn1 | 36.8 | –
81 | FC(F)=C(c1ccc(-c2ccc(Cl)cc2)cc1)C(F)(F)F | 42.5 | –
82 | COC(=O)[C@H]1C=C[C@H](OC2OC(COC(C)=O)C(OC(C)=O)C(OC(C)=O)C2OC(C)=O)n2c(=O)n(-c3ccccc3)c(=O)n21 (stereo partly specified) | 30.6 | –

From PubChem BioAssay (NCI)
